Consider nine compounds from PubChem BioAssay (NCI).

Molecules are shown by their SMILES. Where “and” joins values, the source holds several entries; their conditions need not be identical. Equal values may be shown once.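 Test compounds were applied to cells in 96-well plates for 48 hours at 5 doses. GI50 is the concentration that inhibits growth by half. TGI: total growth inhibition.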

Some test systems named below: SK-OV-3 ovarian; HOP-62 NSCLC; CCRF-CEM leukemia; HL-60(TB) leukemia; HT29 colon; SW-620 colon; K-562 leukemia; SNB-75 CNS; SR leukemia; HCT-116 colon.
What all share (assay): inhibition of tumour cell growth, NCI panel, 48 h

Turning to `COc1ccc(C(=O)Nc2ccn(CCOC(=O)c3ccc(OC)cc3)c(=O)n2)cc1`, the TGI in the assay with SK-OV-3 ovarian is over 100 µM; in the assay on HOP-62 NSCLC, over 100 µM; in the assay on CCRF-CEM leukemia it was over 100000 nM; with HL-60(TB) leukemia, over 100 µM; in the assay on HT29 colon, over 100 µM; in the assay on SW-620 colon it was over 100 µM. Further, the TGI in the assay with K-562 leukemia, in the assay with SNB-75 CNS, with SR leukemia and in the assay on HCT-116 colon was over 100 µM in each case.

Consider `COc1ccccc1/C=C1\CCC(CN2CCOCC2)C1=O` (stereo unspecified), for which the TGI was over 57.5 µM in the assay on SK-OV-3 ovarian; 50.2 µM with HOP-62 NSCLC; over 21300 nM in the assay on CCRF-CEM leukemia; 6.42 µM in the assay on HL-60(TB) leukemia; 56.6 µM in the assay on HT29 colon; 11.5 µM in the assay with SW-620 colon. Also, the TGI with K-562 leukemia was 10.3 µM; in the assay with SNB-75 CNS, 46.3 µM; in the assay on SR leukemia it was 5.7 µM; in the assay on HCT-116 colon it was 22.9 µM.

In the case of `COc1ccc(C2CC(c3ccc4ccccc4c3)=NN2c2nc(O)c(C3=c4cc(Cl)ccc4=NC3=O)s2)cc1` (stereo unspecified), the GI50 is 21.7 nM and < 5 nM in the assay on SK-OV-3 ovarian; 25 nM and < 5 nM with HOP-62 NSCLC; 36.2 nM and < 5 nM in the assay on CCRF-CEM leukemia; 171 nM in the assay with HL-60(TB) leukemia; 30.7 nM and < 5 nM in the assay on HT29 colon; 18.7 nM and < 5 nM in the assay with SW-620 colon. The GI50 in the assay on K-562 leukemia is 37.1 nM and < 5 nM; with SNB-75 CNS, 17.1 nM; with SR leukemia it was 33.8 nM and < 5 nM; with HCT-116 colon, 33.8 nM and < 5 nM. In addition, the TGI was 533 nM in the assay with CCRF-CEM leukemia; 0.771 µM and 0.556 µM with HT29 colon; 0.0374 µM and < 0.005 µM in the assay on SW-620 colon; 1.65 µM in the assay with K-562 leukemia; 0.0408 µM in the assay on SNB-75 CNS; under 0.005 µM in the assay with SR leukemia. Also, the TGI with HCT-116 colon was 0.122 µM and 0.107 µM.

Consider `CCc1c2c(nc3ccc(OC(=O)OCc4ccc(B5OC(C)(C)C(C)(C)O5)cc4)cc13)-c1cc3c(c(=O)n1C2)COC(=O)[C@]3(O)CC`, for which the GI50 was 15.1 nM in the assay on SK-OV-3 ovarian; under 10 nM in the assay with HOP-62 NSCLC; under 10 nM in the assay with CCRF-CEM leukemia; 12.1 nM in the assay on HL-60(TB) leukemia; 43.6 nM in the assay with HT29 colon; under 12.7 nM in the assay with SW-620 colon. The GI50 in the assay with K-562 leukemia was 36.8 nM; with SNB-75 CNS, under 11.7 nM; in the assay on SR leukemia it was under 10 nM; in the assay on HCT-116 colon, under 11.1 nM. Besides, the TGI is over 100 µM with SK-OV-3 ovarian; 3.27 µM in the assay with HOP-62 NSCLC; over 100000 nM in the assay with CCRF-CEM leukemia; 22.3 µM in the assay with HL-60(TB) leukemia; over 100 µM in the assay on HT29 colon; over 100 µM with K-562 leukemia. Further, the TGI was 0.184 µM with SNB-75 CNS, over 100 µM with SR leukemia and over 100 µM with HCT-116 colon.

Take `CCCCCCCCCCCCCP(=O)(OC)OC`: the TGI with SK-OV-3 ovarian was 33.3 µM; in the assay with HOP-62 NSCLC it was 28.2 µM; in the assay with CCRF-CEM leukemia it was 38800 nM; with HL-60(TB) leukemia it was 32.9 µM; in the assay with HT29 colon, 34.1 µM; with SW-620 colon it was 32.4 µM. Further, the TGI with K-562 leukemia was 45.2 µM; in the assay on SNB-75 CNS, 38.1 µM; with SR leukemia it was 38.4 µM; in the assay with HCT-116 colon, 33.8 µM.

For `CCCn1cc(/C=N\N=C2\C(=O)Nc3ccc(C)cc32)c2ccccc21`, the GI50 is 11700 nM in the assay on SK-OV-3 ovarian; 4170 nM in the assay with HOP-62 NSCLC; 1940 nM in the assay on CCRF-CEM leukemia; 1310 nM in the assay with HL-60(TB) leukemia; 3400 nM in the assay with HT29 colon; 2970 nM with SW-620 colon. The GI50 with K-562 leukemia was 2220 nM; with SNB-75 CNS, 2310 nM; in the assay with SR leukemia, 521 nM; in the assay on HCT-116 colon, 1750 nM. Further, the TGI was 67.1 µM with SK-OV-3 ovarian; 25 µM with HOP-62 NSCLC; over 100000 nM in the assay on CCRF-CEM leukemia; 4.8 µM in the assay with HL-60(TB) leukemia; over 100 µM with HT29 colon; 35.3 µM in the assay with SW-620 colon. Besides, the TGI in the assay on K-562 leukemia was 20.5 µM; with SNB-75 CNS it was 46 µM; in the assay with SR leukemia, 8.72 µM; in the assay on HCT-116 colon it was 4.17 µM.

For the compound `C=C1C(=O)O[C@H]2C3OC3(C)CC/C=C(/C(=O)OC)[C@@H](OC(C)=O)[C@H](OC(=O)C3(C)OC3C)[C@H]12` (stereo partly specified), the GI50 was 9.25 µM and 26.5 µg/mL in the assay with SK-OV-3 ovarian; 11.9 µM and 5.74 µg/mL in the assay on HOP-62 NSCLC; 173 nM and 231 nM in the assay with CCRF-CEM leukemia; 154 nM and 0.285 µg/mL with HL-60(TB) leukemia; 1.29 µM and 1.06 µM and 1.32 µg/mL in the assay with HT29 colon; 422 nM and 350 nM and 0.302 µg/mL with SW-620 colon. Besides, the GI50 in the assay with K-562 leukemia is 416 nM and 0.359 µg/mL; in the assay with SNB-75 CNS, 5.54 µM and 11.2 µM and 2.27 µg/mL; in the assay with SR leukemia, 248 nM; in the assay with HCT-116 colon it was 1.17 µM and 668 nM and 0.444 µg/mL. In addition, the TGI is 18.9 µM and 48 µg/mL in the assay with SK-OV-3 ovarian; 24.3 µM and 18.1 µg/mL in the assay with HOP-62 NSCLC; 461 nM and 1150 nM with CCRF-CEM leukemia; 477 nM and 655 nM and 0.679 µg/mL with HL-60(TB) leukemia; 2.55 µM and 2.3 µM and 4.03 µg/mL in the assay with HT29 colon; 3.47 µM and 1.4 µM and 0.762 µg/mL in the assay with SW-620 colon. Also, the TGI in the assay on K-562 leukemia was 1.15 µM and 2.25 µM and 1.15 µg/mL; in the assay with SNB-75 CNS, 21.8 µM and 4.68 µg/mL; with SR leukemia, 0.664 µM and 1.27 µM; in the assay on HCT-116 colon, 2.39 µM and 1.67 µM and 1.19 µg/mL.

As for `CN(C)C[C@@H]1CCn2cc(c3ccccc32)C2=C(C(=O)NC2=O)c2cn(c3ccccc23)CCO1`, the GI50 with SK-OV-3 ovarian was 2080 nM; with HOP-62 NSCLC, 2540 nM; with CCRF-CEM leukemia, 459 nM; in the assay on HL-60(TB) leukemia, 1600 nM; in the assay with HT29 colon it was 3320 nM; in the assay on SW-620 colon it was 467 nM. Moreover, the GI50 was 916 nM with K-562 leukemia, 1400 nM in the assay with SNB-75 CNS, 1680 nM in the assay with SR leukemia and 374 nM in the assay on HCT-116 colon. Also, the TGI was over 10 µM in the assay with SK-OV-3 ovarian; over 10 µM in the assay with HOP-62 NSCLC; 2730 nM in the assay on CCRF-CEM leukemia; 3.75 µM in the assay on HL-60(TB) leukemia; over 10 µM with HT29 colon; 4.28 µM in the assay on SW-620 colon. In addition, the TGI was determined as 3.37 µM in the assay with K-562 leukemia, 5.96 µM in the assay on SNB-75 CNS, 5.55 µM in the assay with SR leukemia and 1.56 µM in the assay on HCT-116 colon.

`CC(=O)OC(C)(C)C[N+](=O)[O-]`: the TGI with SK-OV-3 ovarian was over 100 µM; with HOP-62 NSCLC, over 100 µM; in the assay on CCRF-CEM leukemia, over 100000 nM; in the assay on HL-60(TB) leukemia it was over 100 µM; with HT29 colon, over 100 µM; in the assay with SW-620 colon, over 100 µM. Further, the TGI in the assay on K-562 leukemia, in the assay on SNB-75 CNS, with SR leukemia and in the assay on HCT-116 colon was over 100 µM throughout.
